In ChEMBL document CHEMBL4390667, “Novel tacrine-tryptophan hybrids: Multi-target directed ligands as potential treatment for Alzheimer's disease” (Eur J Med Chem, 2019):
pIC50, pKd: −log10 of the molar value. The source made the active and inactive calls. The rule behind the calls is not given here.

Tests used:
[1] = pampa, pH 7.4, 100 µM
Description: Effective permeability of the compound in PBS buffer at pH 7.4 at 100 uM after 3 to 6 hrs by PAMPA

CHO-K1 = test: cells; settings: Cricetulus griseus, CHO-K1, 24 h
Description: Cytotoxicity against CHOK1 cells assessed as reduction in cell viability incubated for 24 hrs by MTT assay

HepG2 = test: cells; settings: Homo sapiens, HepG2, 24 h
Description: Cytotoxicity against human HepG2 cells assessed as reduction in cell viability incubated for 24 hrs by MTT assay

Acetylcholinesterase [2] = target: Acetylcholinesterase (Homo sapiens, UniProt P22303)
Acetylcholinesterase (Homo sapiens, UniProt P22303), sequence (P22303 whole entry): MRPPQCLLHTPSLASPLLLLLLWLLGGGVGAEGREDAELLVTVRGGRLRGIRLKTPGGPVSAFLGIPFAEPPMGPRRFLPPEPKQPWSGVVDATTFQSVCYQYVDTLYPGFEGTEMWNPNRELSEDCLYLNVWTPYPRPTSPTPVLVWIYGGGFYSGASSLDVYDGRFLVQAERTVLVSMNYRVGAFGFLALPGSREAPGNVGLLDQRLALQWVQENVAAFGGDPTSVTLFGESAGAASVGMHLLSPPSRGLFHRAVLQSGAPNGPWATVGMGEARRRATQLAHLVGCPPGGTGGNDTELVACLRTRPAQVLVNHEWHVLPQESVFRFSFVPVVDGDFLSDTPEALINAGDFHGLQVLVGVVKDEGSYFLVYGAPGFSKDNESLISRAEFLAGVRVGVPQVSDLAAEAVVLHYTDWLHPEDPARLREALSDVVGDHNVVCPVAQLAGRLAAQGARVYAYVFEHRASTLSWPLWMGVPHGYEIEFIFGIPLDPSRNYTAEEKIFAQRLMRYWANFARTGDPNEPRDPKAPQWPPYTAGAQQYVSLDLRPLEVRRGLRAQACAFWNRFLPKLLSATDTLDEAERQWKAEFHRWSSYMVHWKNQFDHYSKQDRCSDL
Description: Inhibition of human recombinant AChE using acetylthiocholine iodide as substrate preincubated for 5 mins followed by substrate addition and measured over 2 mins by UV-Vis spectrophotometric analysis based Ellman's method

Nitric oxide synthase 1 = Nitric oxide synthase 1 (Rattus norvegicus, UniProt P29476)
Nitric oxide synthase 1, sequence (P29476 whole entry, looked up): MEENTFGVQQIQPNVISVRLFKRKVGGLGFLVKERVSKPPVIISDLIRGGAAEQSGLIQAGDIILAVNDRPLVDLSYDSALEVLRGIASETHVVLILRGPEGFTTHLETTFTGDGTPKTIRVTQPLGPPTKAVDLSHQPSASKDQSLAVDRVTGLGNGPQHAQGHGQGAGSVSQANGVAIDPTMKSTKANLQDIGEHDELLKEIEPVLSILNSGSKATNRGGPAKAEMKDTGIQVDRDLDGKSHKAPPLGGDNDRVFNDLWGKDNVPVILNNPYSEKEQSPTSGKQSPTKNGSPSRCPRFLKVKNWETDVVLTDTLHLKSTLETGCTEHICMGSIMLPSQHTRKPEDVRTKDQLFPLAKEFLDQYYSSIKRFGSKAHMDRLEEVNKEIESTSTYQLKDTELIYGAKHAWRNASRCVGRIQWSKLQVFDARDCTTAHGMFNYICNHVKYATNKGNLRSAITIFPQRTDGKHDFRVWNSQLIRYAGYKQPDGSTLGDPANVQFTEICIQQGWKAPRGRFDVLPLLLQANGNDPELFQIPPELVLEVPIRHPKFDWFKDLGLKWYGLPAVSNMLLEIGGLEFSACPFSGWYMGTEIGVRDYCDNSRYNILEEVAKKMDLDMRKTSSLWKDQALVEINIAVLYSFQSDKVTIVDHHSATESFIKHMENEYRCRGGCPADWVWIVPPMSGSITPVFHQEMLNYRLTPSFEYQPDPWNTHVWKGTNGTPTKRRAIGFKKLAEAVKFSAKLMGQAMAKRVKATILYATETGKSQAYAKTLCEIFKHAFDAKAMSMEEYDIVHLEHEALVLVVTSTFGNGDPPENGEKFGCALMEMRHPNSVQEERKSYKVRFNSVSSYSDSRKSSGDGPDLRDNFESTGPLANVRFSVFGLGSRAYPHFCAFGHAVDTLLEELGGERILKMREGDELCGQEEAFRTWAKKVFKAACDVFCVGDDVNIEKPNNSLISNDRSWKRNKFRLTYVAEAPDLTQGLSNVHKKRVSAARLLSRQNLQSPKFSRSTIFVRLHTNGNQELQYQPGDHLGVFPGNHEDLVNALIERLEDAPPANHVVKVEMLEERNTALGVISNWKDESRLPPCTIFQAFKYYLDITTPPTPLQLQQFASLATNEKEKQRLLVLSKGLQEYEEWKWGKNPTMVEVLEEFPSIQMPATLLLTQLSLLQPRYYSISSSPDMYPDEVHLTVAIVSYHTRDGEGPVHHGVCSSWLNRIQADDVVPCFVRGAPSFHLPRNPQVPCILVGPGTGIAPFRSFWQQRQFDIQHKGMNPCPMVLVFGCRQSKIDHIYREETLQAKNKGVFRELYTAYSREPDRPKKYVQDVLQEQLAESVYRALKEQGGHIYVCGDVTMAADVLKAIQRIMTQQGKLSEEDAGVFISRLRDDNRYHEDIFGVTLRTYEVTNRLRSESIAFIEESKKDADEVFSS
Description: Inhibition of nNOS in Wistar rat cortical homogenates incubated for 30 mins

Cholinesterase = Cholinesterase (Homo sapiens, UniProt P06276)
Cholinesterase, sequence (P06276 whole entry): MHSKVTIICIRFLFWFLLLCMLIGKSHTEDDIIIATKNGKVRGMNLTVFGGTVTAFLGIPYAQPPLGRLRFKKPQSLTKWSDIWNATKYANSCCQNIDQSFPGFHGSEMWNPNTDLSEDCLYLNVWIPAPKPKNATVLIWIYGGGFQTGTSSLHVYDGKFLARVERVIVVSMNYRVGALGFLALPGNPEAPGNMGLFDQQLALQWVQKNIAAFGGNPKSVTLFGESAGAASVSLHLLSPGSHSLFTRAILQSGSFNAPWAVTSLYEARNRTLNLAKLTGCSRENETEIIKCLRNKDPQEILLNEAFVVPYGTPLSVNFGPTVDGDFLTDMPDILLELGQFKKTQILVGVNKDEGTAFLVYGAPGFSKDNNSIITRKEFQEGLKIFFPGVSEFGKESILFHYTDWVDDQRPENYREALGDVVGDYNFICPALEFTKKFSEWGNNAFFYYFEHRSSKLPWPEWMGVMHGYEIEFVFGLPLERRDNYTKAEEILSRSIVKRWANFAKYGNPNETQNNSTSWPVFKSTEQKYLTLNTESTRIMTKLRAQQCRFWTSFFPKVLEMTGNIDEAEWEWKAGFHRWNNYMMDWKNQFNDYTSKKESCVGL
Description: Inhibition of human recombinant BChE using butyrylthiocholine iodide as substrate preincubated for 5 mins followed by substrate addition and measured over 2 mins by UV-Vis spectrophotometric analysis based Ellman's method

[3] = Toxicity in Wistar rat assessed as induction of diminishing spontaneously and prostration at 70 mg/kg, ip measured during first 2 hrs; type: organism-based; settings: in vivo
Rattus norvegicus [4] = test: Antialzhemeric activity in Wistar rat model of scopolamine-induced cognition deficit assessed as effect on time in target sector at 10 nM, icv dosed 60 mins prior to training trial by Morris water maze test; type: functional, organism-based
Acetylcholinesterase [5] = target: Acetylcholinesterase (Electrophorus electricus, UniProt O42275); test: Displacement of propidium iodide from peripheral binding site of electric eel AChE assessed as dissociation constant at 8 to 56 uM by spectrofluorometry based Taylor and Lappi method
Acetylcholinesterase (Electrophorus electricus, UniProt O42275), sequence (O42275 whole entry): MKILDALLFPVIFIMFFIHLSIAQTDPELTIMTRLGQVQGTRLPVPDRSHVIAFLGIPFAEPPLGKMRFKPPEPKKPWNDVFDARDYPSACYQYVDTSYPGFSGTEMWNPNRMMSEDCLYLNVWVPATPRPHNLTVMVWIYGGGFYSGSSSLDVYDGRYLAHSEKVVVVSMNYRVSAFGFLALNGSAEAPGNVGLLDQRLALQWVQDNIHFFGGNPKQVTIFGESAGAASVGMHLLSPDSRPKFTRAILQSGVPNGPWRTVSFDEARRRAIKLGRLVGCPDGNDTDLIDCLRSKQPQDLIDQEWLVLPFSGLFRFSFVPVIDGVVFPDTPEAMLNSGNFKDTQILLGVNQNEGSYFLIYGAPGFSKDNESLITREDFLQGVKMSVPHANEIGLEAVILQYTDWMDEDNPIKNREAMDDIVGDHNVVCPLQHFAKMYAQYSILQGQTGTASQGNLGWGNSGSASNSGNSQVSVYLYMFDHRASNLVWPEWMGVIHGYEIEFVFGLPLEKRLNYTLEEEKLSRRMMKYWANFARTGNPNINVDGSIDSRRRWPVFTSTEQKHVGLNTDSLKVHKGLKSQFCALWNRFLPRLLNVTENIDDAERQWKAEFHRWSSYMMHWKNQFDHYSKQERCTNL

Rattus norvegicus [6] = test: Antialzhemeric activity in Wistar rat model of scopolamine-induced cognition deficit assessed as effect on average distance from platform at 100 nM, icv dosed 60 mins prior to training trial by Morris water maze test; type: functional, organism-based
Rattus norvegicus [7] = test: Antialzhemeric activity in icv dosed Wistar rat model of scopolamine-induced cognition deficit assessed as effect on escape latency dosed 60 mins prior to training trial by Morris water maze test; type: functional, organism-based
[8] = Toxicity in Wistar rat assessed as induction of intermittent tremors and prostration at 70 mg/kg, ip measured during first 2 hrs then periodically for 48 hrs; type: organism-based; settings: in vivo
[9] = Toxicity in Wistar rat assessed as effect on distance moved at 100 nM, icv by Morris water maze assay; settings: in vivo, icv_or_intrathecal, 0.1 µM
[10] = Toxicity in Wistar rat assessed as induction of salivation at 100 nM, icv by Morris water maze assay; settings: in vivo, icv_or_intrathecal, 0.1 µM
[11] = Toxicity in Wistar rat assessed as change in body weight weight at 70 mg/kg, ip after 24 and 48 hrs; type: organism-based; settings: in vivo
Rattus norvegicus [12] = test: Antialzhemeric activity in Wistar rat model of scopolamine-induced cognition deficit assessed as effect on average distance from platform at 10 nM, icv dosed 60 mins prior to training trial by Morris water maze test; type: functional, organism-based
[13] = Toxicity in Wistar rat assessed as induction of persistent oculonasal discharge at 70 mg/kg, ip measured during first 2 hrs then periodically for 48 hrs; type: organism-based; settings: in vivo
Rattus norvegicus [14] = test: Antialzhemeric activity in icv dosed Wistar rat model of scopolamine-induced cognition deficit assessed as effect on distance moved dosed 60 mins prior to training trial by Morris water maze test; type: functional, organism-based
[15] = Toxicity in Wistar rat assessed as effect on time spent in the target sector at 100 nM, icv by Morris water maze assay; settings: in vivo, icv_or_intrathecal, 0.1 µM
Rattus norvegicus [16] = test: Antialzhemeric activity in Wistar rat model of scopolamine-induced cognition deficit assessed as effect on escape latency at 10 nM, icv dosed 60 mins prior to training trial by Morris water maze test; type: functional, organism-based
Rattus norvegicus [17] = test: Antialzhemeric activity in Wistar rat model of scopolamine-induced cognition deficit assessed as effect on distance moved at 10 nM, icv dosed 60 mins prior to training trial by Morris water maze test; type: functional, organism-based
[18] = Toxicity in Wistar rat assessed as effect on average distance from platform at 100 nM, icv by Morris water maze assay; settings: in vivo, icv_or_intrathecal, 0.1 µM
Rattus norvegicus [19] = test: Antialzhemeric activity in icv dosed Wistar rat model of scopolamine-induced cognition deficit assessed as effect on average distance from platform dosed 60 mins prior to training trial by Morris water maze test; type: functional, organism-based
[20] = Toxicity in Wistar rat assessed as effect on escape latency at 100 nM, icv by Morris water maze assay; settings: in vivo, icv_or_intrathecal, 0.1 µM
Rattus norvegicus [21] = test: Antialzhemeric activity in Wistar rat model of scopolamine-induced cognition deficit assessed as effect on distance moved at 100 nM, icv dosed 60 mins prior to training trial by Morris water maze test; type: functional, organism-based
Rattus norvegicus [22] = test: Antialzhemeric activity in icv dosed Wistar rat model of scopolamine-induced cognition deficit assessed as effect on time in target sector dosed 60 mins prior to training trial by Morris water maze test; type: functional, organism-based
Rattus norvegicus [23] = test: Antialzhemeric activity in Wistar rat model of scopolamine-induced cognition deficit assessed as effect on time in target sector at 100 nM, icv dosed 60 mins prior to training trial by Morris water maze test; type: functional, organism-based
[24] = Toxicity in Wistar rat assessed as induction of partial piloerection at 70 mg/kg, ip measured during first 2 hrs then periodically for 48 hrs; type: organism-based; settings: in vivo
[25] = Toxicity in ip dosed Wistar rat assessed as maximum tolerated dose measured during first 2 hrs then periodically for 48 hrs; type: organism-based; settings: in vivo
[26] = Toxicity in Wistar rat assessed as induction of intermittent abnormal breathing pattern at 70 mg/kg, ip measured during first 2 hrs then periodically for 48 hrs; type: organism-based; settings: in vivo
[27] = Toxicity in Wistar rat assessed as induction of tremors at 100 nM, icv by Morris water maze assay; settings: in vivo, icv_or_intrathecal, 0.1 µM
Rattus norvegicus [28] = test: Antialzhemeric activity in Wistar rat model of scopolamine-induced cognition deficit assessed as effect on escape latency at 100 nM, icv dosed 60 mins prior to training trial by Morris water maze test; type: functional, organism-based

## Nc1c2c(nc3cc(Cl)ccc13)CCCC2
[1]
  permeability: Permeable
CHO-K1
  pIC50: 4.15
HepG2
  pIC50: 4.15

## COc1ccc2nc3c(c(NCCCCCCCCNC(=O)[C@@H](N)Cc4c[nH]c5ccccc45)c2c1)CCCC3
CHO-K1
  pIC50: 4.37
Acetylcholinesterase [2]
  pIC50: 5.89
Nitric oxide synthase 1
  pIC50: 4.35
Cholinesterase
  pIC50: 6.89

## N[C@@H](Cc1c[nH]c2ccccc12)C(=O)NCCCCCNc1c2c(nc3cc(Cl)ccc13)CCCC2
CHO-K1
  pIC50: 4.68
Acetylcholinesterase [2]
  pIC50: 7.12
Nitric oxide synthase 1
  pIC50: 4.57
Cholinesterase
  pIC50: 7.13

## COc1ccc2nc3c(c(NCCNC(=O)[C@@H](N)Cc4c[nH]c5ccccc45)c2c1)CCCC3.Cl.Cl
[1]
  permeability: Impermeable
CHO-K1
  pIC50: 3.88
Acetylcholinesterase [2]
  pIC50: 5.24
Nitric oxide synthase 1
  pIC50: 4.72
Cholinesterase
  pIC50: 6.32

## Cl.Cl.N[C@@H](Cc1c[nH]c2ccccc12)C(=O)NCCCCCCNc1c2c(nc3cc(Cl)ccc13)CCCC2
[1]
  permeability: Permeable
[3]
  Activity: Toxic
Rattus norvegicus [4]
  Activity: Active
Acetylcholinesterase [5]
  pKd: 5.32
Rattus norvegicus [6]
  Activity: Active
Rattus norvegicus [7]
  Activity: Dose-dependent effect
[8]
  Activity: Toxic
CHO-K1
  pIC50: 4.68
[9]
  Activity: Non-Toxic
[10]
  Activity: Non-Toxic
[11]
  Activity: Non-Toxic
Rattus norvegicus [12]
  Activity: Active
[13]
  Activity: Toxic
Rattus norvegicus [14]
  Activity: Dose-dependent effect
[15]
  Activity: Non-Toxic
Rattus norvegicus [16]
  Activity: Active
Rattus norvegicus [17]
  Activity: inactive
[18]
  Activity: Non-Toxic
Rattus norvegicus [19]
  Activity: Dose-dependent effect
[20]
  Activity: Non-Toxic
Rattus norvegicus [21]
  Activity: Active
Rattus norvegicus [22]
  Activity: Dose-dependent effect
HepG2
  pIC50: 5.31
Acetylcholinesterase [2]
  pIC50: 8.20
Rattus norvegicus [23]
  Activity: Active
Nitric oxide synthase 1
  pIC50: 4.59
[24]
  Activity: Toxic
[25]
  MTD at 48 h: 70 mg/kg
[26]
  Activity: Toxic
[27]
  Activity: Non-Toxic
Cholinesterase
  pIC50: 8.04
Rattus norvegicus [28]
  Activity: Active

## Cl.Cl.N[C@@H](Cc1c[nH]c2ccccc12)C(=O)NCCNc1c2c(nc3ccccc13)CCCC2
[1]
  permeability: Impermeable
CHO-K1
  pIC50: 3.70
Acetylcholinesterase [2]
  pIC50: 6.14
Nitric oxide synthase 1
  pIC50: 4.48
Cholinesterase
  pIC50: 7.25

## Cl.Cl.N[C@@H](Cc1c[nH]c2ccccc12)C(=O)NCCCNc1c2c(nc3ccccc13)CCCC2
[1]
  permeability: Impermeable
CHO-K1
  pIC50: 3.94
Acetylcholinesterase [2]
  pIC50: 6.24
Nitric oxide synthase 1
  pIC50: 4.49
Cholinesterase
  pIC50: 7.40

## N[C@@H](Cc1c[nH]c2ccccc12)C(=O)NCCCCNc1c2c(nc3cc(Cl)ccc13)CCCC2
CHO-K1
  pIC50: 4.80
Acetylcholinesterase [2]
  pIC50: 7.21
Nitric oxide synthase 1
  pIC50: 4.59
Cholinesterase
  pIC50: 6.92

## COc1ccc2nc3c(c(NCCCCNC(=O)[C@@H](N)Cc4c[nH]c5ccccc45)c2c1)CCCC3.Cl.Cl
[1]
  permeability: Impermeable
CHO-K1
  pIC50: 4.14
Acetylcholinesterase [2]
  pIC50: 4.92
Nitric oxide synthase 1
  pIC50: 4.57
Cholinesterase
  pIC50: 6.28

## COc1ccc2nc3c(c(NCCCCCCNC(=O)[C@@H](N)Cc4c[nH]c5ccccc45)c2c1)CCCC3
CHO-K1
  pIC50: 4.64
HepG2
  pIC50: 4.80
Acetylcholinesterase [2]
  pIC50: 6.03
Nitric oxide synthase 1
  pIC50: 4.57
Cholinesterase
  pIC50: 7.26

## COc1ccc2nc3c(c(NCCCNC(=O)[C@@H](N)Cc4c[nH]c5ccccc45)c2c1)CCCC3.Cl.Cl
[1]
  permeability: Impermeable
CHO-K1
  pIC50: 4.02
Acetylcholinesterase [2]
  pIC50: 5.89
Nitric oxide synthase 1
  pIC50: 4.52
Cholinesterase
  pIC50: 5.74

## Cl.Cl.N[C@@H](Cc1c[nH]c2ccccc12)C(=O)NCCCCCNc1c2c(nc3ccccc13)CCCC2
[1]
  permeability: Impermeable
CHO-K1
  pIC50: 4.08
Acetylcholinesterase [2]
  pIC50: 6.49
Nitric oxide synthase 1
  pIC50: 4.59
Cholinesterase
  pIC50: 7.64

## O=C(CCCCCNc1c2c(nc3cc(Cl)ccc13)CCCC2)NCCc1cc2ccccc2[nH]1
[1]
  permeability: Permeable
Acetylcholinesterase [2]
  pIC50: 9.14
Cholinesterase
  pIC50: 6.74

## N[C@@H](Cc1c[nH]c2ccccc12)C(=O)NCCCNc1c2c(nc3cc(Cl)ccc13)CCCC2
CHO-K1
  pIC50: 4.54
Acetylcholinesterase [2]
  pIC50: 7.15
Nitric oxide synthase 1
  pIC50: 4.51
Cholinesterase
  pIC50: 6.85

## N[C@@H](Cc1c[nH]c2ccccc12)C(=O)O [TRYPTOPHAN]
HepG2
  pIC50: 1.77
